Where two headings read alike, the source gives them in different places.
Tests used:
[1] = Fluorescence lifetimes by TCSPC; assay type: physicochemical; settings: for t (fluorescence lifetime), parent fluorophore: 20 mM buffer HEPES, pH 7.4; for t (fluorescence lifetime), P12-Complex: TCSPC
Method: (§1) Absorption and fluorescence spectra were measured with a UVIKON 943 Double Beam UV/Vis absorption spectrophotometer and with a Perkin Elmer LS50B fluorescence spectrophotometer, respectively. Lifetime measurements were made by TCSPC in a Horiba Jobin Yvon IBH Fluorescence Lifetime Spectrometer System. The excitation source at 495 nm was a NanoLED N-01 Aqua and the detection module was TBX-04-A. Irradiation was carried out using a Superlite SUV-DC-P system incorporating a 200W DC Super-Pressure short arc lamp coupled to a light guide for high UV transmission and an electronic timer for exposure time control (Lumatec GmbH,
The fluorescence lifetimes of the complexes obtained as described in section 3.1, were determined by TCSPC. The corresponding values for each parent fluorescein were also determined in 20 mM buffer HEPES, pH 7.4 for comparison.

[2] = Critical Förster distances of donor-acceptor combinations; assay type: physicochemical
Source text: F2F1AsH and F4F1AsH have a very favorable spectral overlap, leading to a large J (the overlap integral) and thus an R0 of 5.4 nm, greater than any of the values obtained with the other combinations of donors and acceptors based on biarsenical dyes. For example the F1ASH-ReAsH pair has an R0 of 3.9 nm. Thus, the new F2F1AsH-F4F1AsH probes constitute a new donor acceptor pair extending the dynamic range for heteroFRET in studies of living cells by 40%. They also provide new possibilities in combination with other FRET donors and acceptors within and outside the biarsenical family.

[3] = Photostability (photobleaching under mercury arc lamp irradiation); assay type: physicochemical; settings: complexes with P12
Method: FIG. 2 illustrates a graph illustrations photobleaching of F2F1AsH-P12 (◯), F4F1AsH-P12 (□) and F1AsH-P12 (+). Full lines correspond to exponential fits. Complexes of the three dyes (10 μM) were irradiated with a mercury arc lamp through a 490-560 nm filter with an irradiance of 70 mW/cm^2;
as §1
Samples containing 10 μM of the biarsenical compounds and 10 μM of the model peptide P12, were incubated at room temperature for 1 h. Each solution of the F1AsH-peptide complex was irradiated for 120 min as previously described (see General Procedures).
Values of κbl were calculated from the monoexponential fitting of the experimental photobleaching decay, according to the model described in (Eq. 1) for the intermediate irradieation regime.^13
where τ(s) is the lifetime, Ψ is the irradiance (photons cm^−2 s^−1) and σ is the molecular absorption cross-section (cm^2 molecules^−1). Inasmuch as a broad excitation bandwidth was used, σ was computed as a mean value over the spectral distribution function of photon flux and corrected by the spectral integral with the corresponding absorption spectra, including the irradiation source and filter.

[4] = tested on: model target peptide P12 (FLNCCPGCCMEP); assay: In vitro labeling of model peptide P12; absorption and emission spectra of biarsenical-P12 complexes; assay type: physicochemical
Method: as §1
To a solution of the biarsenical compound in buffer HEPES 20 mM, 1 mM 2-ME, pH 7.4, at a concentration of 0.1 μM and with a slight excess of EDT, was added the model target peptide P12 ([…]) to a final concentration of 1 μM from a stock solution in the same buffer and treated with 10 mM TCEP to reduce any disulfide bond. Emission spectra were taken after two hours of formation of the complex. FIG. 4 depicts the emision spectra of the F2F1AsH, F4F1AsH and F1AsH at equal concentration, with excitation at 490 nm. A 4-fold enhanced fluorescence emission of F2F1AsH compared to F1AsH can be observed.

[5] = approximate value from ref 8; cited from earlier work

O=C1OC2(c3cc(F)c(O)cc3Oc3cc(O)c(F)cc32)c2ccccc21 [2′,7′-difluorofluorescein]
t (fluorescence lifetime), parent fluorophore [1]: 4.02 ns

O=C1OC2(c3ccc(O)cc3Oc3cc(O)ccc32)c2c(F)c(F)c(F)c(F)c21 [3,4,5,6-tetrafluorofluorescein]
t (fluorescence lifetime), parent fluorophore [1]: 4.13 ns

O=C1OC2(c3ccccc31)c1cc(F)c(O)c([As]3SCCS3)c1Oc1c2cc(F)c(O)c1[As]1SCCS1 [F2FlAsH, 4′,5′-Bis(1,2,3-dithioarsolan-2-yl)-2′,7′-difluorofluorescein]
10^13 · J (overlap integral) ([2]; acceptor F2FlAsH): 1.37 | Ro ([2]; acceptor F2FlAsH): 5.2 nm | 10^13 · J (overlap integral) ([2]; acceptor F4FlAsH): 1.58 | Ro ([2]; acceptor F4FlAsH): 5.4 nm | 10^14 · J (overlap integral) ([2]; acceptor FlAsH): 6.41 | Ro ([2]; acceptor FlAsH): 4.1 nm | 10^14 · J (overlap integral) ([2]; acceptor ReAsH): 3.44 | Ro ([2]; acceptor ReAsH): 4.1 nm | t (fluorescence lifetime), P12-Complex [1]: 4.78 ns | wavelength of fluorescence maximum [3]: 516 nm | shift of absorption maximum to the blue compared to FlAsH [4]: 11 nm | emission quantum yield relative to FlAsH complex ([4]; P12 complex): 2 × | extinction coefficient at 490 nm relative to FlAsH complex ([4]; P12 complex): 2 × | fluorescence intensity relative to complex with parent FlAsH ([4]; P12 complex, λexc 490 nm, λem 525 nm): 4 fold | λem ([4]; biarsenical-P12 complex): 522 nm | Stokes shift ([4]; complex with P12): 22 nm | Stokes shift, greater than that of the FlAsH complex by ([4]; complex with P12): 7 nm

O=C1OC2(c3ccc(O)c([As]4SCCS4)c3Oc3c2ccc(O)c3[As]2SCCS2)c2c(F)c(F)c(F)c(F)c21 [F4FlAsH, 4′,5′-Bis(1,2,3-dithioarsolan-2-yl)-3,4,5,6-tetrafluorofluorescein]
Φd, emission quantum yield of donor [2]: 0.4 | 10^13 · J (overlap integral) ([2]; acceptor F4FlAsH): 1.17 | Ro ([2]; acceptor F4FlAsH): 4.5 nm | 10^14 · J (overlap integral) ([2]; acceptor ReAsH): 6.45 | Ro ([2]; acceptor ReAsH): 4.1 nm | t (fluorescence lifetime), P12-Complex [1]: 5.18 ns | wavelength of fluorescence maximum [3]: 538 nm | displacement of absorption maximum to the red compared to FlAsH [4]: 17 mn

O=C1OC2(c3ccccc31)c1ccc(O)c([As]3SCCS3)c1Oc1c2ccc(O)c1[As]1SCCS1 [FlAsH, 4′,5′-Bis(1,2,3-dithioarsolan-2-yl)-fluorescein, reference compound]
10^13 · J (overlap integral) ([2]; acceptor F4FlAsH): 1.48 | Ro ([2]; acceptor F4FlAsH): 4.7 nm | 10^14 · J (overlap integral) ([2]; acceptor ReAsH): 5.03 | Ro ([2]; acceptor ReAsH): 3.9 nm | t (fluorescence lifetime), P12-Complex [1]: 4.88 ns | τ (fluorescence lifetime) ([1]; biarsenical-P12 complex): 4.88 ns | wavelength of fluorescence maximum [3]: 519.5 nm | Φd, emission quantum yield of donor [5]: ~0.4
